Measured values as given in patent US20240245714A1, “COMPOSITION AND METHODS USING COMBINATION OF NARH AND NR TO PRODUCE INTRACELLULAR NICOTINAMIDE ADENINE DINUCLEOTIDE (NAD+)” (SOCIETE DES PRODUITS NESTLE S.A., priority 2021, published 2024).

Experiments:
RAW 264.7 cells = test: NAD+ induction in RAW 264.7 cells; assay type: cell-based; settings: RAW 264.7 mouse macrophages, 2 hours, NARH and NR 0.5 mM
Procedure: (§1) RAW 264.7 cells were treated with dihydronicotinic acid riboside (NARH) and nicotinamide riboside (NR), alone or in combination for 2 hours. NARH and NR were used at the concentration of 0.5 mM. After treatment, cells were scraped and collected for NAD+ and protein content measurements. NAD+ was extracted and quantified using an EnzyChrom NAD/NADH Assay Kit (BioAssay Systems; #E2ND-100) according to the manufacturer's instructions. Proteins were quantified with BCA Protein Assay Kit (Pierce™; #23225). All results are expressed as mean+/−SD of n=2-4. NARH vs control P=0.8130; NR vs control P=0.0788; NRH+NR vs control P=0.0087.
as §1, with “#23225).” for “#23225). All results are expressed as mean+/−SD of n=2-4. NARH vs control P=0.8130; NR vs control P=0.0788; NRH+NR vs control P=0.0087.”

MEF cells = test: NAD+ induction in MEF cells; assay type: cell-based; settings: MEF mouse fibroblast, 2 hours, NARH and NR 0.5 mM
Procedure: as §1, with “MEF” for “RAW 264.7”, “trypsinized” for “scraped”, “n=2.” for “n=2-4.”, “P=0.7581;” for “P=0.8130;”, “P=0.5337;” for “P=0.0788;”, “P=0.0002.” for “P=0.0087.”
as §1, with “MEF” for “RAW 264.7”, “trypsinized” for “scraped”, “#23225).” for “#23225). All results are expressed as mean+/−SD of n=2-4. NARH vs control P=0.8130; NR vs control P=0.0788; NRH+NR vs control P=0.0087.”

Compound | NAD+ induction (RAW 264.7 cells) | NAD+ induction (MEF cells)
O=C(O)C1=CN([C@@H]2O[C@H](CO)[C@@H](O)[C@@H]2O)C=CC1 [NARH, dihydronicotinic acid riboside] | not NARH or NR alone, induces NAD+ | not NARH or NR alone, induces NAD+
NC(=O)c1ccc[n+]([C@@H]2O[C@H](CO)[C@@H](O)[C@H]2O)c1 [NR, nicotinamide riboside] | not NARH or NR alone, induces NAD+ | not NARH or NR alone, induces NAD+
